Assay results taken from patent US9371362B2, “Prostate specific antigen agents and methods of using same for prostate cancer imaging” (VisEn Medical, Inc., priority 2012, dated 2016).
Non-standard residues stand in square brackets, D forms with d. Y‑mPEG ~40 kDa = Y-mPEG amine, ~40 kDa, coupled at C-terminal carboxyl; Hyp = O=C(O)[C@@H]1C[C@@H](O)CN1; Chg = N[C@H](C(=O)O)C1CCCCC1

What was measured:
[1] = test system: human prostate PSA+ LNCaP tumor; assay: In vivo imaging of prostate cancer, FMT2500 reflectance and tomography, IVIS Spectrum; details: male Nu/Nu mice, 2 nmoles intravenously, imaged 6 hours later
Procedure: FIG. 2A depicts epi-fluorescent reflectance and tomographic images for sites of active PSA detected in prostate cancer expressing mice six hours post-injection using a prostate specific antigen activatable agent (compound A10).
As depicted in FIG. 2A, imaging studies were performed in human prostate PSA^+ LNCaP tumor-bearing male Nu/Nu mice. The mice were injected intravenously with 2 nmoles of test agent (compound A10) and were imaged 6 hours later on the FMT2500 (PerkinElmer Inc., Waltham, Mass.) (FMT 2D for epifluorescence, FMT 3D for tomography) in reflectance and tomographic modes, and on the IVIS Spectrum (PerkinElmer Inc., Waltham, Mass.).

complexed PSA = complexed PSA (Homo sapiens, UniProt P07288); assay: In vitro activation of agent by complexed (inactive) PSA, kinetic fluorescence reading; format: biochemical; details: 0.5 μM agent, optimized buffer pH 7.5
Procedure: (§1) Data in FIG. 1 depict activation of the prostate specific antigen activatable agents (compound A10).
(§2) Kinetic fluorescence readings were performed in a Gemini fluorescence plate reader at different times after adding the enzyme.
(§3) In this experiment, fluorescence is only associated with the test agents (compound A10) in the prescence of active PSA described herein.

active PSA = active PSA (Homo sapiens, UniProt P07288); assay: In vitro activation (cleavage) of agent by enzymatically active PSA, kinetic fluorescence reading; format: biochemical; details: 0.5 μM agent, 0.1 μM activated enzyme, TCNB buffer pH 7.5
Procedure: as §1, §2, §3

[2] = test system: LNCaP tumors (PSA+) and PC3 (PSA−) tumors; assay: In vivo specificity imaging, LNCaP (PSA+) versus PC3 (PSA−) tumors, FMT2500; details: male Nu/Nu mice, 2 nmoles intravenously, imaged 24 hours later
Procedure: FIG. 2B is a histogram comparing fluorescence between prostate cancer expressing (PSA positive) and control (PSA negative) mice injected with the prostate specific antigen activatable agent (compound A10) and imaged tomographically.
Imaging studies were performed in LNCaP tumors (PSA+) and PC3 (PSA−) tumors tumor-bearing male Nu/Nu mice. The mice were injected intravenously with 2 nmoles of compound A10 and imaged 24 hours later on the FMT2500 (PerkinElmer Inc., Waltham, Mass.). Tumor fluorescence from positive and control mice was quantified and plotted.

Sequence of complexed PSA (P07288 25-261): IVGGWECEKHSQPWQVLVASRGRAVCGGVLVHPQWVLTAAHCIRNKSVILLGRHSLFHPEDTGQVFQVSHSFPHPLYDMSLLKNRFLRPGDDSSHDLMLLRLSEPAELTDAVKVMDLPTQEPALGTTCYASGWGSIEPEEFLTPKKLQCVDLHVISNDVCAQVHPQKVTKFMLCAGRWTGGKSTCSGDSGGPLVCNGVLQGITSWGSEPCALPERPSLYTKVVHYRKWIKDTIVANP
Sequence of complexed PSA (P01011 24-423 partner): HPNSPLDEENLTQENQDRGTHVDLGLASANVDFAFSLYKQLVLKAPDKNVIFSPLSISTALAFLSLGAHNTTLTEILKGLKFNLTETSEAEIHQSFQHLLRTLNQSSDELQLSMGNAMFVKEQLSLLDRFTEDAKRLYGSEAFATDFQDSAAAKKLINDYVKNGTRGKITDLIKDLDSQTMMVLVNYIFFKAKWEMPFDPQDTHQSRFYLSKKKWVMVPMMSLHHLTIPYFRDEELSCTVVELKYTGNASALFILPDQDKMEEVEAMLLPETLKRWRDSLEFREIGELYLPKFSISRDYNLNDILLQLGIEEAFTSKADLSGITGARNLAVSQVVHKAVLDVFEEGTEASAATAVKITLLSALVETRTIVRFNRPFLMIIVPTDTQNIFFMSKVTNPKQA
Sequence of active PSA (P07288 25-261): as the sequence (P07288 25-261) above

activation (fluorescence) in the presence of complexed PSA (complexed PSA): not complexed PSA
activation (fluorescence) in the presence of active PSA (active PSA): activated in the presence of active PSA
Substance: A10 (Ac-K[Hyp]SS[Chg]QSSK-{Y‑mPEG ~40 kDa}; also: conjugated with NHS ester of fluorophore F8, sites not given here) [Compound A10]
detection of sites of enzymatically active PSA in vivo [1]: Sites of active PSA are detected in the same locations for both reflectance and tomographic imaging
specificity of tumor fluorescence for PSA positive over PSA negative tumors [2]: specificity the prostate specific antigen activatable agents have for tumors containing enzymatically active PSA over PSA negative tumors in vivo
